Test results from PubChem BioAssay (NCI).
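Grown in 96-well plates, cells were treated for 48 hours with each compound at five concentrations. Insufficient inhibition: endpoint recorded as highest concentration tested. At the TGI there is no net growth.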

Tests used:
Experiment in all cases: NCI anticancer screen, dose series, 48 h
MDA-MB-231 breast = test system: MDA-MB-231 breast
K-562 leukemia = test system: K-562 leukemia
OVCAR-5 ovarian = test system: OVCAR-5 ovarian
786-0 renal = test system: 786-0 renal
HT29 colon = test system: HT29 colon
OVCAR-8 ovarian = test system: OVCAR-8 ovarian
SF-268 CNS = test system: SF-268 CNS

## CCOC(=O)NC(C(=O)OCC)C(F)(F)F (stereo unspecified)
MDA-MB-231 breast
  TGI: > 100 µM
K-562 leukemia
  TGI: > 100 µM
OVCAR-5 ovarian
  TGI: > 100 µM
786-0 renal
  TGI: > 100 µM
HT29 colon
  TGI: > 100 µM
OVCAR-8 ovarian
  TGI: > 100 µM
SF-268 CNS
  TGI: > 100 µM

## CN=CN(C)c1c2ccccc2nc2ccccc12
MDA-MB-231 breast
  TGI: > 100 µM
K-562 leukemia
  TGI: > 100 µM
OVCAR-5 ovarian
  TGI: > 100 µM
786-0 renal
  TGI: > 100 µM
HT29 colon
  TGI: > 100 µM
OVCAR-8 ovarian
  TGI: > 100 µM
SF-268 CNS
  TGI: > 100 µM

## C=C[C@H]1CC[C@H]2[C@@H]3CC=C4C[C@@H](OC5OCC(O)C(O)C5O)CC[C@]4(C)[C@H]3CC[C@]12C (stereo partly specified)
MDA-MB-231 breast
  TGI: 39.6 µM
K-562 leukemia
  TGI: > 100 µM
OVCAR-5 ovarian
  TGI: 28.1 µM
786-0 renal
  TGI: 34.1 µM
HT29 colon
  TGI: 61.3 µM
OVCAR-8 ovarian
  TGI: 33.5 µM
SF-268 CNS
  TGI: 36.2 µM

## COc1cc(NCc2ccc3nc(-c4ccccc4)c(N)nc3c2)cc(OC)c1OC
MDA-MB-231 breast
  TGI: > 100 µM
K-562 leukemia
  TGI: > 100 µM
OVCAR-5 ovarian
  TGI: > 100 µM
786-0 renal
  TGI: > 100 µM
HT29 colon
  TGI: > 100 µM
OVCAR-8 ovarian
  TGI: 57.3 µM
SF-268 CNS
  TGI: 98.6 µM

## C#CCOCn1ccc(=O)[nH]c1=O
MDA-MB-231 breast
  TGI: > 100 µM
K-562 leukemia
  TGI: > 100 µM
OVCAR-5 ovarian
  TGI: > 100 µM
786-0 renal
  TGI: > 100 µM
HT29 colon
  TGI: > 100 µM
OVCAR-8 ovarian
  TGI: > 100 µM
SF-268 CNS
  TGI: > 100 µM

## N=C(N)C(N=Nc1ccccc1)C(N)=O (stereo unspecified)
MDA-MB-231 breast
  TGI: > 100 µM
K-562 leukemia
  TGI: > 100 µM
OVCAR-5 ovarian
  TGI: > 100 µM
786-0 renal
  TGI: > 100 µM
HT29 colon
  TGI: > 100 µM
OVCAR-8 ovarian
  TGI: > 100 µM
SF-268 CNS
  TGI: > 100 µM

## c1cc(CSP234N5CCN2CCN3CCN4CC5)ccc1CSP123N4CCN1CCN2CCN3CC4
MDA-MB-231 breast
  TGI: > 100 µM
K-562 leukemia
  TGI: > 100 µM
OVCAR-5 ovarian
  TGI: > 100 µM
786-0 renal
  TGI: > 100 µM
HT29 colon
  TGI: > 100 µM
OVCAR-8 ovarian
  TGI: > 100 µM
SF-268 CNS
  TGI: > 100 µM

## O=C(N/N=C/c1ccc([N+](=O)[O-])cc1)c1cccc2nc3ccccc3nc12
MDA-MB-231 breast
  TGI: > 100 µM
K-562 leukemia
  TGI: > 100 µM
OVCAR-5 ovarian
  TGI: > 100 µM
786-0 renal
  TGI: > 100 µM
HT29 colon
  TGI: > 100 µM
OVCAR-8 ovarian
  TGI: > 100 µM
SF-268 CNS
  TGI: > 100 µM

## COc1ccc(C(=O)c2sc(Nc3ccccc3)nc2N)cc1
MDA-MB-231 breast
  TGI: > 100 µM
K-562 leukemia
  TGI: > 100 µM
OVCAR-5 ovarian
  TGI: > 100 µM
786-0 renal
  TGI: > 100 µM
HT29 colon
  TGI: > 100 µM
OVCAR-8 ovarian
  TGI: > 100 µM
SF-268 CNS
  TGI: > 100 µM

## OCC1OC(NCCNCCNC2OC(CO)C(O)C(O)C2O)C(O)C(O)C1O (stereo unspecified)
MDA-MB-231 breast
  TGI: > 100 µM
K-562 leukemia
  TGI: > 100 µM
OVCAR-5 ovarian
  TGI: > 100 µM
786-0 renal
  TGI: > 100 µM
HT29 colon
  TGI: > 100 µM
OVCAR-8 ovarian
  TGI: > 100 µM
SF-268 CNS
  TGI: > 100 µM

## CN(C)CCCNc1ncnc2nc[nH]c12
MDA-MB-231 breast
  TGI: > 100 µM
K-562 leukemia
  TGI: > 100 µM
OVCAR-5 ovarian
  TGI: > 100 µM
786-0 renal
  TGI: > 100 µM
HT29 colon
  TGI: > 100 µM
OVCAR-8 ovarian
  TGI: > 100 µM
SF-268 CNS
  TGI: > 100 µM

## N#CCCSC1SC(=C2SC3=C(SCCS3)S2)SC1SCCC#N (stereo unspecified)
MDA-MB-231 breast
  TGI: > 100 µM
K-562 leukemia
  TGI: > 100 µM
OVCAR-5 ovarian
  TGI: > 100 µM
786-0 renal
  TGI: > 100 µM
HT29 colon
  TGI: > 100 µM
OVCAR-8 ovarian
  TGI: > 100 µM
SF-268 CNS
  TGI: > 100 µM

## C(=Nc1ccc(-c2cc(-c3ccccc3)nc3ccc4ccccc4c23)cc1)c1ccccc1
MDA-MB-231 breast
  TGI: > 100 µM
K-562 leukemia
  TGI: > 100 µM
OVCAR-5 ovarian
  TGI: > 100 µM
786-0 renal
  TGI: > 100 µM
HT29 colon
  TGI: 40.3 µM
OVCAR-8 ovarian
  TGI: > 100 µM
SF-268 CNS
  TGI: > 100 µM
